“Also recorded” adds a separate entry of the source.
Key:
[1] = tested on: IA memory in the rat; test: Inhibitory Avoidance (IA) task, retention latency in normal rats; type: in vivo
Procedure: An exemplary passive avoidance test utilizes an apparatus that consists of a lit chamber that can be separated from a dark chamber by a sliding door. At training, the animal is placed in the lit chamber for some period of time, and the door is opened. The animal moves to the dark chamber after a short delay—the latency—that is recorded. Upon entry into the dark chamber, the door is shut closed and a foot shock is delivered. Retention of the experience is determined after various time intervals, e.g., 24 or 48 hours, by repeating the test and recording the latency. The protocol is one of many variants of the passive avoidance procedures (for review, see Rush (1988) Behav Neural Biol 50:255).
The Inhibitory Avoidance (IA) task is a well-studied behavioral paradigm which can provide the researcher with a consistent and long-lasting measure of memory. The paradigm consists of one training trial and one retention trial. Test articles may be administered to the rats either before or after training. Improved memory, as a result of test compound administration, is evident as increased latency on the retention trial. The objective of the following experiments was to investigate the effects of methylphenidate on IA memory in the rat.
In this experiment, rats were injected with three different doses of methylphenidate thirty minutes prior to training on the IA task.
Rats were injected with 5 mg/kg of methylphenidate and trained on the IA task.
In this experiment, the time of drug administration was varied in order to determine the optimal pre-training drug administration time.
This experiment was conducted in order to determine whether the enhanced retention observed in Experiment 2 was long-lasting. Rats received a second retention test one week after the first retention test. No additional training or drug was administered to the animals in the interim period.
In the next experiment, we investigated whether the performance of amnesic rats could be improved by administration of methylphenidate. In this experiment, control rats and rats with lesions of the fornix received injections of either saline or methylphenidate (5 mg/kg), and one hour later, were tested on the IA task.

[2] = tested on: rats with lesions of the fornix; test: Inhibitory Avoidance (IA) task in rats with lesions of the fornix (amnesic rats); type: in vivo, rat; conditions: 5 mg/kg, tested one hour after injection
Description: Applicants have previously described an animal model for studying fornix-mediated memory consolidation. See, for example, Taubenfield et al., Supra. The fornix-lesioned animals can be used for drug screening, e.g., to identify dosages of the subject compositions which enhance memory consolidation. The lesioned mammal can have a lesion of the fornix or a related brain structure that disrupts memory consolidation (e.g., perirhinal cortex, amygdala, medial septal nucleus, locus coeruleus, hippocampus, mammillary bodies). Lesions in the mammal can be produced by mechanical or chemical disruption. For example, the fornix lesion can be caused by surgical ablation, electrolytic, neurotoxic and other chemical ablation techniques, or reversible inactivation such as by injection of an anesthetic, e.g., tetrodotoxin or lidocaine, to temporarily arrest activity in the fornix.
In one embodiment, the animal can be a rat. Briefly, the animals are anesthetized, e.g., with intraperitoneal injections of a ketamine-xylazine mixture and positioned in a Kopf stereotaxic instrument. A sagittal incision is made in the scalp and a craniotomy is performed extending 2.0 mm posterior and 3.0 mm lateral from Bregma. […]

SMILES: COC(=O)C(c1ccccc1)C1CCCCN1 (stereo not drawn) [methylphenidate, methyl α-phenyl-2-piperidineacetate]
- IA performance of normal rats (FIG. 3) ([1]; normal control rats, 5 mg/kg, tested one hour after injection, post hoc p<0.05, 5 mg/kg): dramatically enhanced; also recorded: significantly enhanced relative to all other experimental groups
- retention on the IA task (FIG. 1) ([1]; rats, 5 mg/kg injected thirty minutes prior to training): improved retention
- optimal pre-training drug administration time ([1]; rats, 5 mg/kg, time of administration varied): most effective when administered to the rats one hour prior to training
- retention of the IA task, verifying experiment (FIG. 2) ([1]; rats, 5 mg/kg, unpaired t-test p<0.03): significantly improved retention
- retention on the IA task (FIG. 1) ([1]; rats, 10 mg/kg injected thirty minutes prior to training): no effect
- retention on the IA task (FIG. 1) ([1]; rats, 15 mg/kg injected thirty minutes prior to training): no effect
- long-term retention, second retention test ([1]; rats, one week after the first retention test, no additional training or drug, t(54)=2.358, p<0.0220): still significantly enhanced
- IA performance of fornix lesion rats (FIG. 3) [2]: appeared to improve; also recorded: not significantly different from normal, saline injected animals

Reference: US20030229122A1, “Use of methylphenidate compounds to enhance memory” (Sention, Inc., priority 2000, published 2003)
